Here are results for twelve compounds from paper PMC9784403 (Pharmaceuticals, 2022).

Where “and” joins values, the source holds several entries; their conditions need not be identical. Equal values may be shown once.

Experiment [1] concerns the target T1, σ2R/TMEM97 (Rattus norvegicus, UniProt Q5U3Y7).
T1 sequence (Q5U3Y7 1-176): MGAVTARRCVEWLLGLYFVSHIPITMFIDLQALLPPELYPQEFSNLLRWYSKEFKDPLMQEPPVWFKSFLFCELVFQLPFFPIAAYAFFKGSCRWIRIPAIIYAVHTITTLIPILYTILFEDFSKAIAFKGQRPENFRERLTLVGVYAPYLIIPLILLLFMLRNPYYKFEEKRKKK
Put plainly: Competitive receptor binding assay with [125I]RHM-4.
Procedure: Briefly, the livers of female SD rats (Rockland, ME, USA) were dissected and homogenized using a Wheaton overhead stirrer (120 Vac Overhead Stirrer, Millville, NJ, USA) in 10 mL/g tissue weight of ice-cold 10mM Tris-HCl/0.32M Sucrose, pH 7.4. The crude homogenate was centrifuged for 10 min at 1000× g at 4 °C, the pellets were discarded, and the supernatant was further centrifuged at 31,000× g for 20 min at 4 °C. The supernatant was discarded, and the pellet was resuspended in 3 mL/g of ice-cold 10 mM Tris-HCl/0.32M sucrose, pH 7.4, and centrifuged again at 31,000× g for 20 min at 4 °C. After centrifugation, the pellets were resuspended in 1 mL of 50mM Tris-HCl, pH 7.4, and stored at −80 °C.
The inhibition constant [14] values of the tested ligands were determined using the Cheng and Prussoff equation [35], and the mean Ki values ± SEM were reported for at least three independent experiments.

In experiment [2] the target is T1, σ2R/TMEM97. Put plainly: Competitive receptor binding assay with [3H]DTG (σ1R masked with (+)-pentazocine).
Procedure: After incubation, the bound ligands were filtered using an M-24 Brandel filtration system (Brandel, Gaithersburg, MD, USA), collected on glass fiber paper (Whatman grade 934-AH, GE Healthcare Bio-Sciences, Pittsburgh, PA, USA), and counted using a MicroBeta2 Microplate counter 2450 (Perkin Elmer, Boston, MA, USA) or Wizard2 Automatic Gamma Counter 2470 (Perkin Elmer, Boston, MA, USA). The inhibition constant [14] values of the tested ligands were determined using the Cheng and Prussoff equation [35], and the mean Ki values ± SEM were reported for at least three independent experiments.
The subject of experiment [3] is TMEM97-knocked out HeLa cells. More on the design: method as in PMID 30443021. The conditions noted are these: cited from earlier work.
The target of experiment [4] is T1, σ2R/TMEM97. The format is binding. More on the design: from tissue; host or cells: liver membranes of Sprague-Dawley rats. Here is the method:
All Kd and Bmax values were calculated via a nonlinear regression method using Prism, and the protein concentrations were determined using Lowry et al.’s method with BSA as the standard.

Another experiment concerns the target T2, σ1R (Cavia porcellus, UniProt Q60492).
T2 construct: 100 μg of the brain membrane from male Guinea pigs; from tissue; host or cells: brain membranes of male guinea pigs
In words: σ1R competitive binding assay with [3H](+)-pentazocine. The conditions noted are these: [3H](+)-pentazocine 5 nM; Guinea pig brain membrane; 90 min at 37 °C. From the text: For the σ1R assay, [^3H]Pentazocine (Perkin Elmer, Boston, MA, USA) was used as the radioligand to define the σ1R binding affinity of the test compounds, and the protocol followed the references published before with minor modification. […] Afterward, the filter paper collection, signal counting procedure, and data analysis were in line with the study of [^3H]DTG mentioned above.

T2 sequence (Q60492 whole entry): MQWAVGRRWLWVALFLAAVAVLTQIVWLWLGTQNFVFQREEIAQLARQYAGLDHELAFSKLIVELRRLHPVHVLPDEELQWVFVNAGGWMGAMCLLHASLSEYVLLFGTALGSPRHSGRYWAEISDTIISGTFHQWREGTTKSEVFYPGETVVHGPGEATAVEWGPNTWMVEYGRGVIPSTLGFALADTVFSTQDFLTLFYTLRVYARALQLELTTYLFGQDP

As for `Cc1ccc2c(c1)C1CN(C)CCC1N2C(=O)CSc1nnnn1-c1ccc(Cl)cc1` (centres unmarked) [AG-205, reference compound], the values for the Ki at σ2R/TMEM97 [1] and at σ2R/TMEM97 [2] were 571 ± 82.1 nM and 807 ± 238 nM, respectively.

Take `COc1cc2c(cc1OC)CN(CCc1ccc(NC(=O)c3cccc4c(=O)c5cccc(OC)c5[nH]c34)cc1)CC2` [Elacridar, reference compound]: the Ki on σ2R/TMEM97 [1] was 0.9 ± 0.3 nM; at σ2R/TMEM97 [2] it was 11.7 ± 0.7 nM.

On σ2R/TMEM97 [1], `COc1cccc2c1CCCC2CCCN1CCN(C2CCCCC2)CC1` (centres unmarked) [PB-28, reference compound] gave a Ki of 0.1 nM.

For the compound `COc1cc2c(cc1OC)CN(CCCCNC(=O)c1cc(I)cc(OC)c1OC)CC2` [RHM-4], the Ki on σ2R/TMEM97 [1] amounted to 0.2 ± 0.1 nM; on σ2R/TMEM97 [2], 11.7 ± 2.4 nM. Besides, the “fold increase of σ2R/TMEM97 affinity by combination of fragments 1 and 2” value on σ2R/TMEM97 [1] (RHM-4 versus fragments 1 and 2) was “approximately 10 fold”.

On to `C=CCN(C)CCCCCCOc1ccc(C(=O)c2ccc(Br)cc2)c(F)c1` [Ro 48-8071, reference compound], for which the figures for the Ki on σ2R/TMEM97 [1] and on σ2R/TMEM97 [2] were 73 ± 32.7 nM and 370 ± 230 nM, respectively.

With `COc1ccc(C)cc1NC(=O)OC1CC2CCCC(C1)N2CCCCCCN` (centres unmarked) [SV119, reference compound], the Ki on σ2R/TMEM97 [1] was 35 ± 4 nM; at σ2R/TMEM97 [2], 44.3 ± 7.3 nM.

With `Cc1ccccc1NC(=N)Nc1ccccc1C` [[^3H]DTG, reference compound], in experiment [3] (read-out: Kd of retained low-affinity binding site), the Kd is ~300 nM.

`COc1cc2c(cc1OC)CN(CCCCNC(=O)c1cc([125I])cc(OC)c1OC)CC2` [[^125I]RHM-4] yielded a Kd on σ2R/TMEM97 [4] (SD rat liver membranes, saturation binding, 100 nM (+)-pentazocine added for [3H]DTG, n = 3) of 0.2 nM. For the same compound, the “Bmax (binding capacity)” value at σ2R/TMEM97 [4] (SD rat liver membranes, saturation binding, n = 3) is 3894 ± 50 fmol/mg and 3894 ± 90 fmol/mg. The “fold higher σ2R/TMEM97 affinity than that of [3H]DTG” value at σ2R/TMEM97 [4] (ratio of binding affinities of the two radioligands) is ~ 50 fold. In experiment [3], the “specific binding after knocking out TMEM97” value is on record as “completely eliminated”.

For `CCCCNC(=O)c1cc(C)ccc1OCCF` [compound 1], the Ki at σ1R was 1310 ± 87 nM; on σ2R/TMEM97 [1] it was > 10000 nM; on σ2R/TMEM97 [2], > 10000 nM.

`CCCCN1CCc2cc(OC)c(OC)cc2C1` [compound 2]: the inhibitory constant (Ki) at σ1R worked out at 38 ± 3.3 nM; at σ2R/TMEM97 [1] it was 7 ± 3.9 nM; on σ2R/TMEM97 [2] it was 10.4 ± 3.4 nM.

Turning to `COc1cc2c(cc1OC)CN(CCCCc1cc(-c3cc(C)ccc3OCCF)no1)CC2` [compound 3], the Ki on σ1R was 715 ± 46 nM; on σ2R/TMEM97 [1], 0.24 ± 0.02 nM; on σ2R/TMEM97 [2] it was 2.3 ± 0.4 nM.

Take `COc1cc2c(cc1OC)CN(CCCCc1cc(-c3ccc(F)cc3)no1)CC2` [compound 4]: the Ki was determined as 800 ± 23 nM at σ1R, 0.05 ± 0.01 nM at σ2R/TMEM97 [1] and 0.6 ± 0.3 nM at σ2R/TMEM97 [2].

For orientation: Ki means the dissociation constant of the complex between target and ligand, obtained from inhibition or displacement. Read a high Ki as a looser hold on the target. Broadly, the Kd is the concentration at which binding is half-saturated.
